COc1ccc(P(c2ccc(OC)cc2)c2ccc(OC)cc2)cc1
Conditions | solubility (mole fraction)
in 2-butanone, 293.16 K | 0.00621
in 2-butanone, 298.17 K | 0.00684
in 2-butanone, 303.18 K | 0.00749
in 2-butanone, 308.14 K | 0.00815
in 2-butanone, 313.16 K | 0.00884
in 2-butanone, 318.17 K | 0.00962
in 2-butanone, 323.16 K | 0.0103
in 2-butanone, 328.17 K | 0.0113
in 2-butanone, 333.16 K | 0.0121
in 2-ethoxyethanol, 293.16 K | 0.00522
in 2-ethoxyethanol, 298.17 K | 0.00693
in 2-ethoxyethanol, 303.18 K | 0.00862
in 2-ethoxyethanol, 308.14 K | 0.0108
in 2-ethoxyethanol, 313.16 K | 0.0136
in 2-ethoxyethanol, 318.17 K | 0.0168
in 2-ethoxyethanol, 323.16 K | 0.0209
in 2-ethoxyethanol, 328.17 K | 0.0255
in 2-ethoxyethanol, 333.16 K | 0.0311
in 2-ethoxyethanol, 338.17 K | 0.0377
in 2-ethoxyethanol, 343.15 K | 0.0454
in benzene, 293.16 K | 0.00029
in benzene, 298.17 K | 0.00037
in benzene, 303.18 K | 0.00045
in benzene, 308.14 K | 0.00054
in benzene, 313.16 K | 0.00068
in benzene, 318.17 K | 0.00082
in benzene, 323.16 K | 0.00099
in cyclohexane, 299.15 K | 0.00054
in cyclohexane, 304.05 K | 0.00082
in cyclohexane, 308.85 K | 0.00107
in cyclohexane, 313.95 K | 0.00151
in cyclohexane, 318.45 K | 0.00231
in cyclohexane, 323.65 K | 0.00326
in cyclohexane, 328.45 K | 0.00436
in cyclohexane, 332.85 K | 0.00596
in cyclohexane, 337.65 K | 0.00848
in diethyl ether, 293.16 K | 0.00587
in diethyl ether, 296.17 K | 0.00721
in diethyl ether, 299.18 K | 0.00889
in diethyl ether, 301.16 K | 0.0101
in diethyl ether, 303.15 K | 0.0114
in ethanol, 293.16 K | 0.00084
in ethanol, 298.17 K | 0.00102
in ethanol, 303.18 K | 0.00121
in ethanol, 308.14 K | 0.00142
in ethanol, 313.16 K | 0.00173
in ethanol, 318.17 K | 0.00202
in ethanol, 323.16 K | 0.00241
in methanol, 293.16 K | 0.00022
in methanol, 298.17 K | 0.00029
in methanol, 303.18 K | 0.0004
in methanol, 308.14 K | 0.00051
in methanol, 313.16 K | 0.00066
in methanol, 318.17 K | 0.00083
in methanol, 323.16 K | 0.00107
in toluene, 293.16 K | 0.00035
in toluene, 298.17 K | 0.00042
in toluene, 303.18 K | 0.00051
in toluene, 308.14 K | 0.00061
in toluene, 313.16 K | 0.00075
in toluene, 318.17 K | 0.00089
in toluene, 323.16 K | 0.00105
in toluene, 328.17 K | 0.00123
in toluene, 333.15 K | 0.00145

O=C(O)CCP(=O)(O)c1ccccc1
Conditions | solubility (mole fraction)
in 2-butanone, 293.16 K | 0.00061
in 2-butanone, 298.17 K | 0.00077
in 2-butanone, 303.18 K | 0.00103
in 2-butanone, 308.14 K | 0.00127
in 2-butanone, 313.16 K | 0.00163
in 2-butanone, 318.17 K | 0.00206
in 2-butanone, 323.16 K | 0.00253
in 2-butanone, 328.16 K | 0.00316
in 2-butanone, 333.15 K | 0.00395
in 2-ethoxyethanol, 293.16 K | 0.0461
in 2-ethoxyethanol, 298.17 K | 0.0512
in 2-ethoxyethanol, 303.18 K | 0.0571
in 2-ethoxyethanol, 308.14 K | 0.0638
in 2-ethoxyethanol, 313.16 K | 0.0709
in 2-ethoxyethanol, 318.17 K | 0.0777
in 2-ethoxyethanol, 323.16 K | 0.0849
in 2-ethoxyethanol, 328.16 K | 0.0937
in 2-ethoxyethanol, 333.15 K | 0.102
in acetic acid, 293.16 K | 0.0105
in acetic acid, 298.17 K | 0.0116
in acetic acid, 303.18 K | 0.013
in acetic acid, 308.14 K | 0.0147
in acetic acid, 313.16 K | 0.0164
in acetic acid, 318.17 K | 0.0182
in acetic acid, 323.16 K | 0.0205
in acetic acid, 328.16 K | 0.0225
in acetic acid, 333.15 K | 0.0249
in acetone, 293.16 K | 0.00074
in acetone, 298.17 K | 0.00093
in acetone, 303.18 K | 0.00124
in acetone, 308.14 K | 0.00153
in acetone, 313.16 K | 0.00197
in acetone, 318.17 K | 0.00248
in acetone, 323.16 K | 0.00305
in acetonitrile, 293.16 K | 6e-05
in acetonitrile, 298.17 K | 0.0001
in acetonitrile, 303.18 K | 0.00015
in acetonitrile, 308.14 K | 0.00023
in acetonitrile, 313.16 K | 0.00035
in acetonitrile, 318.17 K | 0.00053
in acetonitrile, 323.16 K | 0.00078
in acetonitrile, 328.16 K | 0.00109
in acetonitrile, 333.15 K | 0.00161
in benzene, 293.16 K | 0.00081
in benzene, 298.17 K | 0.00091
in benzene, 303.18 K | 0.00099
in benzene, 308.14 K | 0.00107
in benzene, 313.16 K | 0.00114
in benzene, 318.17 K | 0.00126
in benzene, 323.16 K | 0.00134
in benzene, 328.16 K | 0.00145
in benzene, 333.15 K | 0.00156
in chloroform, 288.15 K | 0.00021
in chloroform, 293.16 K | 0.00026
in chloroform, 298.17 K | 0.00033
in chloroform, 303.18 K | 0.00041
in chloroform, 308.14 K | 0.00052
in chloroform, 313.16 K | 0.00063
in chloroform, 318.17 K | 0.00079
in chloroform, 323.16 K | 0.00093
in chloroform, 328.16 K | 0.00112
in chloroform, 333.15 K | 0.00133
in cyclohexane, 293.16 K | 0.00088
in cyclohexane, 298.17 K | 0.00108
in cyclohexane, 303.18 K | 0.00128
in cyclohexane, 308.14 K | 0.00157
in cyclohexane, 313.16 K | 0.00186
in cyclohexane, 318.17 K | 0.00222
in cyclohexane, 323.16 K | 0.00263
in cyclohexane, 328.16 K | 0.00314
in cyclohexane, 333.15 K | 0.00371
in dichloromethane, 288.15 K | 0.00029
in dichloromethane, 293.16 K | 0.00042
in dichloromethane, 298.17 K | 0.00059
in dichloromethane, 303.18 K | 0.0008
in dichloromethane, 308.14 K | 0.00111
in dichloromethane, 313.16 K | 0.00149
in ethyl acetate, 293.16 K | 0.00128
in ethyl acetate, 298.17 K | 0.00148
in ethyl acetate, 303.18 K | 0.00162
in ethyl acetate, 308.14 K | 0.00182
in ethyl acetate, 313.16 K | 0.00202
in ethyl acetate, 318.17 K | 0.00226
in ethyl acetate, 323.16 K | 0.00254
in ethyl acetate, 328.16 K | 0.00281
in ethyl acetate, 333.15 K | 0.00311
in toluene, 293.16 K | 0.00051
in toluene, 298.17 K | 0.00059
in toluene, 303.18 K | 0.00068
in toluene, 308.14 K | 0.00079
in toluene, 313.16 K | 0.00092
in toluene, 318.17 K | 0.00105
in toluene, 323.16 K | 0.00119
in toluene, 328.16 K | 0.00138
in toluene, 333.15 K | 0.00154
in water, 298.25 K | 0.00178
in water, 308.66 K | 0.00366
in water, 318.07 K | 0.00671
in water, 327.17 K | 0.0133
in water, 337.55 K | 0.0249
in water, 342.75 K | 0.0339
in water, 345.06 K | 0.0412
in water, 349.47 K | 0.0568
